{"source": "paper PMC11915835", "about": "“Enhancing the solubility of SARS-CoV-2 inhibitors to increase future prospects for clinical development” (Journal of Virology, 2025)", "key": {"[1]": {"target": "SARS-CoV-2 tHRN peptide (44 residues) (Severe acute respiratory syndrome coronavirus 2, UniProt P0DTC2)", "assay_type": "binding"}, "SARS-CoV-2 S BA.5": {"test_system": "SARS-CoV-2 S BA.5", "assay_type": "cell-based", "conditions": "for IC50: read-out: IC50, inhibition of S-mediated cell–cell fusion, SARS-CoV-2 BA.5; for IC90: read-out: IC90, inhibition of S-mediated cell–cell fusion, SARS-CoV-2 BA.5"}, "[2]": {"experiment": "Chemical stability in PBS by UPLC", "assay_type": "physicochemical", "conditions": "room temperature; for Peptide degradation after incubation in PBS: 2 weeks, UPLC 220 nm, disulfide peak after 1 day removed by TCEP; for Integrity during the solubility study: up to 168 h, UPLC, 220 nm"}, "[3]": {"target": "SARS-CoV-2 HRN peptide (55 residues) (Severe acute respiratory syndrome coronavirus 2, UniProt P0DTC2)", "assay_type": "binding", "conditions": "pH 7.4"}, "[4]": {"conditions": "pH 7.4"}}, "note": "Where two headings read alike, the source gives them in different places."}
{"molecule": "Ac-DISQINASVVNIEYEIKKLEEVAKKLEESLIDLQEL-NH2 [QE]", "values": [{"measurement": "Tm of 1:1 mixture with tHRN", "setting": "[1]; 5-95 °C", "result": "65 +/- 0.5 °C"}, {"measurement": "IC50", "setting": "SARS-CoV-2 S BA.5", "result": "7 ± 2.1", "unit": "nM"}, {"measurement": "IC90", "setting": "SARS-CoV-2 S BA.5", "result": "14 ± 4", "unit": "nM"}, {"measurement": "Peptide degradation after incubation in PBS", "setting": "[2]", "result": "No peptide degradation was observed"}, {"measurement": "Temperature above which disruption of the helical assembly with HRN is detectable", "setting": "[3]", "result": "> 70", "unit": "°C"}]}
{"molecule": "CC[C@H](C)[C@H](NC(=O)[C@H](C)NC(=O)[C@H](CCC(=O)O)NC(=O)[C@H](CCC(=O)O)NC(=O)[C@H](CC(C)C)NC(=O)[C@H](CCCCN)NC(=O)[C@H](CCCCN)NC(=O)[C@H](CCSC)NC(=O)[C@H](CCC(=O)O)NC(=O)[C@H](Cc1ccc(O)cc1)NC(=O)[C@H](CCC(=O)O)NC(=O)[C@H](CC(C)C)NC(=O)[C@H](CC(=O)O)NC(=O)[C@H](CC(C)C)NC(=O)[C@H](Cc1ccccc1)NC(=O)[C@@H](NC(=O)[C@@H](NC(=O)[C@H](CC(N)=O)NC(=O)[C@@H](NC(=O)[C@H](CCC(N)=O)NC(=O)[C@H](CC(=O)O)NC(=O)[C@H](CC(C)C)NC(=O)[C@H](CO)NC(C)=O)[C@@H](C)CC)C(C)C)[C@@H](C)O)C(=O)N[C@@H](CCCCN)C(=O)N[C@@H](CCCCN)C(=O)N[C@@H](CC(C)C)C(=O)N[C@@H](CCC(=O)O)C(=O)N[C@@H](CCC(=O)O)C(=O)N[C@@H](CO)C(=O)N[C@@H](Cc1ccc(O)cc1)C(=O)N[C@H](C(=O)N[C@@H](CC(=O)O)C(=O)N[C@@H](CC(C)C)C(=O)N[C@@H](CCCCN)C(=O)N[C@@H](CCC(=O)O)C(=O)N[C@@H](CC(C)C)C(N)=O)[C@@H](C)CC", "note": "[EK1, reference compound]", "values": [{"measurement": "Tm of 1:1 mixture with tHRN", "setting": "[1]; pH 7.4", "result": "38 ± 0.3", "unit": "°C"}]}
{"molecule": "Ac-SIDQINATFVDIEYEIKKLEEVAKKLEESYIDLKEL-NH2 [SK]", "values": [{"measurement": "Tm of 1:1 mixture with tHRN", "setting": "[1]; 5-95 °C", "result": "72 +/- 0.3 °C"}, {"measurement": "IC50", "setting": "SARS-CoV-2 S BA.5", "result": "6.2 ± 1.1", "unit": "nM"}, {"measurement": "IC90", "setting": "SARS-CoV-2 S BA.5", "result": "14 ± 2", "unit": "nM"}, {"measurement": "Peptide degradation after incubation in PBS", "setting": "[2]", "result": "No peptide degradation was observed"}, {"measurement": "Temperature above which disruption of the helical assembly with HRN is detectable", "setting": "[3]", "result": "> 70", "unit": "°C"}]}
{"molecule": "Ac-DISQINASVVNIEYEIKKLEEVAKKLEESLIDLQELGSGSGC-NH2 [QE-L]", "values": [{"measurement": "Solubility relative to HRC-L", "setting": "[4]", "result": "~ two-fold"}, {"measurement": "Integrity during the solubility study", "setting": "[2]", "result": "remained intact"}]}
{"molecule": "Ac-PDVDLGDISQINASVVNIEYEIKKLEEVAKKLEESLIDLQEL-NH2 [QE-EXT]", "values": [{"measurement": "IC50", "setting": "SARS-CoV-2 S BA.5", "result": "5.6 ± 0.72", "unit": "nM"}]}
{"molecule": "Ac-SIDQINATFVDIEYEIKKLEEVAKKLEESYIDLKELGSGSGC-NH2 [SK-L]", "values": [{"measurement": "Solubility relative to HRC-L", "setting": "[4]", "result": "~ two-fold"}, {"measurement": "Integrity during the solubility study", "setting": "[2]", "result": "remained intact"}]}
